Experimental data published in PubChem BioAssay AID248 (DTP/NCI, 2004).
“And” between values parts separate entries of the source, which are not always exact repeats. Equal entries are not always repeated. Inconclusive results and toxic doses are left out. Rule as the data show it: active = T/C of 150% or more; inactive = T/C below 125%.

Test system: L1210 leukemia ip in BDF1 mice, survival T/C
Assay: NCI In Vivo Anticancer Drug Screen. Data for tumor model L1210 Leukemia (intraperitoneal) in B6D2F1 (BDF1) mice
Details: higher = longer survival
Outline: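 Transplantable tumor model; survival measured in treated vs vehicle control mice. Value = treated/control.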

Measured: T/C

CC[n+]1c(-c2ccccc2)c2cc(N)ccc2c2ccc(N)cc21
inactive: endpoint: mean survival time, dose: 0.63 mg/kg/injection, schedule: Q01DX Z (ip), vehicle: saline 113 % of control | endpoint: mean survival time, dose: 1.25 mg/kg/injection, schedule: Q01DX Z (ip), vehicle: saline 122 % of control | endpoint: mean survival time, dose: 2.25 mg/kg/injection, schedule: Q01DX001 (ip), vehicle: saline 110 % of control and 113 % of control | endpoint: mean survival time, dose: 2.25 mg/kg/injection, schedule: Q07DX003 (ip), vehicle: saline 113 % of control | endpoint: mean survival time, dose: 2.5 mg/kg/injection, schedule: Q01DX005 (ip), vehicle: saline 109 % of control | endpoint: mean survival time, dose: 2.5 mg/kg/injection, schedule: Q01DX009 (ip), vehicle: saline 107 % of control | endpoint: mean survival time, dose: 2.5 mg/kg/injection, schedule: Q## X040 (ip), vehicle: saline 107 % of control | endpoint: mean survival time, dose: 2.5 mg/kg/injection, schedule: Q#A X Z (ip), vehicle: saline 108 % of control | endpoint: mean survival time, dose: 4.4 mg/kg/injection, schedule: Q02DX010 (ip), vehicle: saline 110 % of control | endpoint: mean survival time, dose: 4.5 mg/kg/injection, schedule: Q01DX001 (ip), vehicle: saline 104 % of control and 113 % of control | endpoint: mean survival time, dose: 4.5 mg/kg/injection, schedule: Q07DX003 (ip), vehicle: saline 109 % of control | endpoint: mean survival time, dose: 5.0 mg/kg/injection, schedule: Q01DX005 (ip), vehicle: saline 116 % of control | endpoint: mean survival time, dose: 5.0 mg/kg/injection, schedule: Q01DX006 (iv), vehicle: saline 104 % of control | endpoint: mean survival time, dose: 5.0 mg/kg/injection, schedule: Q01DX009 (ip), vehicle: saline 108 % of control | endpoint: mean survival time, dose: 5.0 mg/kg/injection, schedule: Q01DX Z (im), vehicle: saline 106 % of control | endpoint: mean survival time, dose: 5.0 mg/kg/injection, schedule: Q01DX Z (sc), vehicle: saline 110 % of control | endpoint: mean survival time, dose: 5.0 mg/kg/injection, schedule: Q## X040 (ip), vehicle: saline 111 % of control | endpoint: mean survival time, dose: 5.3 mg/kg/injection, schedule: Q02DX010 (ip), vehicle: saline 116 % of control | endpoint: mean survival time, dose: 6.6 mg/kg/injection, schedule: Q02DX010 (ip), vehicle: saline 116 % of control | endpoint: mean survival time, dose: 9.0 mg/kg/injection, schedule: Q01DX001 (ip), vehicle: saline 113 % of control and 116 % of control | endpoint: mean survival time, dose: 9.0 mg/kg/injection, schedule: Q07DX003 (ip), vehicle: saline 110 % of control | endpoint: mean survival time, dose: 9.9 mg/kg/injection, schedule: Q02DX010 (ip), vehicle: saline 115 % of control | endpoint: mean survival time, dose: 10.0 mg/kg/injection, schedule: Q01DX005 (ip), vehicle: saline 120 % of control | endpoint: mean survival time, dose: 10.0 mg/kg/injection, schedule: Q01DX006 (iv), vehicle: saline 123 % of control | endpoint: mean survival time, dose: 10.0 mg/kg/injection, schedule: Q01DX009 (ip), vehicle: saline 116 % of control | endpoint: mean survival time, dose: 10.0 mg/kg/injection, schedule: Q01DX Z (im), vehicle: saline 119 % of control | endpoint: mean survival time, dose: 10.0 mg/kg/injection, schedule: Q01DX Z (sc), vehicle: saline 116 % of control | endpoint: mean survival time, dose: 10.0 mg/kg/injection, schedule: Q## X040 (ip), vehicle: saline 112 % of control | endpoint: mean survival time, dose: 10.0 mg/kg/injection, schedule: Q#A X Z (ip), vehicle: saline 112 % of control | endpoint: mean survival time, dose: 12.5 mg/kg/injection, schedule: Q04DX003 (ip), vehicle: water 104 % of control | endpoint: mean survival time, dose: 14.85 mg/kg/injection, schedule: Q02DX010 (ip), vehicle: saline 113 % of control | endpoint: mean survival time, dose: 15.0 mg/kg/injection, schedule: Q03DX006 (ip), vehicle: saline 118 % of control | endpoint: mean survival time, dose: 18.0 mg/kg/injection, schedule: Q01DX001 (ip), vehicle: saline 116 % of control and 121 % of control | endpoint: mean survival time, dose: 18.0 mg/kg/injection, schedule: Q07DX003 (ip), vehicle: saline 122 % of control | endpoint: mean survival time, dose: 20.0 mg/kg/injection, schedule: Q01DX001 (ip), vehicle: saline 109 % of control | endpoint: mean survival time, dose: 20.0 mg/kg/injection, schedule: Q01DX001 (sc), vehicle: saline 103 % of control | endpoint: mean survival time, dose: 20.0 mg/kg/injection, schedule: Q01DX003 (ip), vehicle: saline 118 % of control | endpoint: mean survival time, dose: 20.0 mg/kg/injection, schedule: Q01DX005 (ip), vehicle: saline 110 % of control | endpoint: mean survival time, dose: 20.0 mg/kg/injection, schedule: Q01DX009 (ip), vehicle: saline 117 % of control | endpoint: mean survival time, dose: 20.0 mg/kg/injection, schedule: Q01DX Z (im), vehicle: saline 116 % of control | endpoint: mean survival time, dose: 20.0 mg/kg/injection, schedule: Q01DX Z (ip), vehicle: saline 95 % of control | endpoint: mean survival time, dose: 20.0 mg/kg/injection, schedule: Q01DX Z (oral), vehicle: saline 110 % of control | endpoint: mean survival time, dose: 20.0 mg/kg/injection, schedule: Q01DX Z (sc), vehicle: saline 122 % of control | endpoint: mean survival time, dose: 20.0 mg/kg/injection, schedule: Q## X008 (ip), vehicle: saline 94 % of control | endpoint: mean survival time, dose: 20.0 mg/kg/injection, schedule: Q## X024 (ip), vehicle: saline 107 % of control | endpoint: mean survival time, dose: 22.27 mg/kg/injection, schedule: Q02DX010 (ip), vehicle: saline 117 % of control | endpoint: mean survival time, dose: 25.0 mg/kg/injection, schedule: Q04DX003 (ip), vehicle: water 104 % of control | endpoint: mean survival time, dose: 40.0 mg/kg/injection, schedule: Q01DX001 (ip), vehicle: saline 118 % of control | endpoint: mean survival time, dose: 40.0 mg/kg/injection, schedule: Q01DX001 (sc), vehicle: saline 102 % of control | endpoint: mean survival time, dose: 40.0 mg/kg/injection, schedule: Q01DX003 (ip), vehicle: saline 110 % of control | endpoint: mean survival time, dose: 40.0 mg/kg/injection, schedule: Q01DX005 (ip), vehicle: saline 96 % of control | endpoint: mean survival time, dose: 40.0 mg/kg/injection, schedule: Q01DX009 (ip), vehicle: saline 90 % of control | endpoint: mean survival time, dose: 40.0 mg/kg/injection, schedule: Q01DX Z (oral), vehicle: saline 113 % of control | endpoint: mean survival time, dose: 40.0 mg/kg/injection, schedule: Q## X008 (ip), vehicle: saline 95 % of control | endpoint: mean survival time, dose: 40.0 mg/kg/injection, schedule: Q## X024 (ip), vehicle: saline 111 % of control | endpoint: mean survival time, dose: 40.0 mg/kg/injection, schedule: Q## X040 (ip), vehicle: saline 93 % of control | endpoint: mean survival time, dose: 60.0 mg/kg/injection, schedule: Q03DX006 (ip), vehicle: saline 93 % of control | endpoint: mean survival time, dose: 70.0 mg/kg/injection, schedule: Q01DX001 (ip), vehicle: saline 118 % of control and 119 % of control | endpoint: mean survival time, dose: 70.0 mg/kg/injection, schedule: Q07DX003 (ip), vehicle: saline 124 % of control | endpoint: mean survival time, dose: 80.0 mg/kg/injection, schedule: Q01DX001 (ip), vehicle: saline 103 % of control | endpoint: mean survival time, dose: 80.0 mg/kg/injection, schedule: Q01DX001 (sc), vehicle: saline 108 % of control | endpoint: mean survival time, dose: 80.0 mg/kg/injection, schedule: Q01DX003 (ip), vehicle: saline 98 % of control | endpoint: mean survival time, dose: 80.0 mg/kg/injection, schedule: Q01DX Z (oral), vehicle: saline 108 % of control | endpoint: mean survival time, dose: 80.0 mg/kg/injection, schedule: Q## X008 (ip), vehicle: saline 103 % of control | endpoint: mean survival time, dose: 140.0 mg/kg/injection, schedule: Q01DX001 (ip), vehicle: saline 104 % of control and 124 % of control | endpoint: mean survival time, dose: 160.0 mg/kg/injection, schedule: Q01DX001 (ip), vehicle: saline 94 % of control | endpoint: mean survival time, dose: 160.0 mg/kg/injection, schedule: Q01DX Z (oral), vehicle: saline 113 % of control | endpoint: mean survival time, dose: 160.0 mg/kg/injection, schedule: Q## X024 (ip), vehicle: saline 94 % of control | endpoint: mean survival time, dose: 200.0 mg/kg/injection, schedule: Q01DX001 (oral), vehicle: saline 103 % of control | endpoint: mean survival time, dose: 215.0 mg/kg/injection, schedule: Q04DX003 (ip), vehicle: water 109 % of control | endpoint: mean survival time, dose: 400.0 mg/kg/injection, schedule: Q01DX001 (oral), vehicle: saline 103 % of control | endpoint: mean survival time, dose: 430.0 mg/kg/injection, schedule: Q04DX003 (ip), vehicle: water 93 % of control | endpoint: mean survival time, dose: 800.0 mg/kg/injection, schedule: Q01DX001 (oral), vehicle: saline 101 % of control | endpoint: mean survival time, dose: 1600.0 mg/kg/injection, schedule: Q01DX001 (oral), vehicle: saline 102 % of control | endpoint: median survival time, dose: 3.6 mg/kg/injection, schedule: Q01DX005 (ip), vehicle: water 105 % of control | endpoint: median survival time, dose: 5.0 mg/kg/injection, schedule: Q01DX009 (ip), vehicle: water 109 % of control and 110 % of control | endpoint: median survival time, dose: 6.0 mg/kg/injection, schedule: Q01DX005 (ip), vehicle: water 100 % of control | endpoint: median survival time, dose: 10.0 mg/kg/injection, schedule: Q01DX005 (ip), vehicle: water 111 % of control | endpoint: median survival time, dose: 10.0 mg/kg/injection, schedule: Q01DX009 (ip), vehicle: water 116 % of control and 120 % of control | endpoint: median survival time, dose: 17.0 mg/kg/injection, schedule: Q01DX005 (ip), vehicle: water 111 % of control | endpoint: median survival time, dose: 17.0 mg/kg/injection, schedule: Q04DX003 (ip), vehicle: water 100 % of control | endpoint: median survival time, dose: 20.0 mg/kg/injection, schedule: Q01DX009 (ip), vehicle: water 90 % of control | endpoint: median survival time, dose: 29.0 mg/kg/injection, schedule: Q01DX005 (ip), vehicle: water 116 % of control | endpoint: median survival time, dose: 29.0 mg/kg/injection, schedule: Q04DX003 (ip), vehicle: water 100 % of control | endpoint: median survival time, dose: 40.0 mg/kg/injection, schedule: Q01DX009 (ip), vehicle: water 70 % of control | endpoint: median survival time, dose: 48.0 mg/kg/injection, schedule: Q04DX003 (ip), vehicle: water 100 % of control | endpoint: median survival time, dose: 49.0 mg/kg/injection, schedule: Q01DX005 (ip), vehicle: water 116 % of control | endpoint: median survival time, dose: 80.0 mg/kg/injection, schedule: Q04DX003 (ip), vehicle: water 105 % of control | endpoint: median survival time, dose: 134.0 mg/kg/injection, schedule: Q04DX003 (ip), vehicle: water 111 % of control
